For orientation: IC50 means the point on the concentration scale where inhibition reaches its midpoint. A high value points to weaker potency in that assay.

Assay [1] is filed under the species Homo sapiens. Put plainly: Selectivity index, ratio of IC50 for human 20S proteasome beta 5c to IC50 for human 20S proteasome beta 5i.
For assay [2], the target named is T1, Proteasome Macropain subunit MB1 (Homo sapiens, UniProt P28074).
T1 sequence (P28074 whole entry): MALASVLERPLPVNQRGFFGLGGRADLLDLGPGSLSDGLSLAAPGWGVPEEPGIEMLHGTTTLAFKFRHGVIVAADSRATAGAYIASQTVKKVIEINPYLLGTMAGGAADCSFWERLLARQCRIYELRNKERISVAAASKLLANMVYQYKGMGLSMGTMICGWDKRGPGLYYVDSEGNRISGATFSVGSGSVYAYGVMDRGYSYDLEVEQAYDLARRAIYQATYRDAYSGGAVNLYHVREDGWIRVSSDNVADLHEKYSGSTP
Put plainly: Inhibition of human 20S proteasome beta 5c.

For assay [3], the target named is T2, Proteasome subunit beta type-8 (Homo sapiens, UniProt P28062).
T2 sequence (P28062 whole entry): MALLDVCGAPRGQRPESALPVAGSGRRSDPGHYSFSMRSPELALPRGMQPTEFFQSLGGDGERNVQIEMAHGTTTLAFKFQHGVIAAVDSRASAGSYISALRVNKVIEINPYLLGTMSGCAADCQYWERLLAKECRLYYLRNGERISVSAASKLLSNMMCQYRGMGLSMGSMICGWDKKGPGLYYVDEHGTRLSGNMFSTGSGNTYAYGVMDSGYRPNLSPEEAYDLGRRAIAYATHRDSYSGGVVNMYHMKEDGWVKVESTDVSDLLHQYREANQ
Put plainly: Inhibition of human 20S proteasome beta 5i.

For assay [4], the target named is T1, Proteasome Macropain subunit MB1. The assay can be described thus: Inhibition of 20S proteasome beta 5c (unknown origin) after 1 hr by cell based assay.
The species named for assay [5] is Homo sapiens. The assay can be described thus: Selectivity index, ratio of IC50 for 20S proteasome beta 5c (unknown origin) to IC50 for 20S proteasome beta 5i (unknown origin).
In assay [6] the target is T2, Proteasome subunit beta type-8. The assay can be described thus: Inhibition of 20S proteasome beta 5i (unknown origin) after 1 hr by cell based assay.
The target of assay [7] is T3, Proteasome subunit beta type-10 (Homo sapiens, UniProt P40306).
T3 sequence (P40306 whole entry): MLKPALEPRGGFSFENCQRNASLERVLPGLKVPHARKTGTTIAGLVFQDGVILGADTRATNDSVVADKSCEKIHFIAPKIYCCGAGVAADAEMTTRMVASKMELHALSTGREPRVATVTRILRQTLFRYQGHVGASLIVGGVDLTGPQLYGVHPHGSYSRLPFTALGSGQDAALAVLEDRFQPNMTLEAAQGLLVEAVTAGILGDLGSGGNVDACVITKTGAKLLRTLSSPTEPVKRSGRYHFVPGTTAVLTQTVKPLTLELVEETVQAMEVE
The assay can be described thus: Inhibition of 20S proteasome beta 2i (unknown origin) after 1 hr by fluorescence based assay.

Assay [8] addresses T2, Proteasome subunit beta type-8. The assay can be described thus: Inhibition of 20S proteasome beta 5i (unknown origin) after 1 hr by fluorescence based assay.
In assay [9] the target is T4, Proteasome subunit beta type-9 (Homo sapiens, UniProt P28065).
T4 sequence (P28065 whole entry): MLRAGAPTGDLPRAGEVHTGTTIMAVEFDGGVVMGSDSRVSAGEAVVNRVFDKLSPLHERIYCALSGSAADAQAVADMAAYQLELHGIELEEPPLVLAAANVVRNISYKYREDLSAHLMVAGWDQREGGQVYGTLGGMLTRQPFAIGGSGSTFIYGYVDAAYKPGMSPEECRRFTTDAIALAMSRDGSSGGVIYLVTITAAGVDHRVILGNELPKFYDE
Put plainly: Inhibition of 20S proteasome beta 1i (unknown origin) after 1 hr by fluorescence based assay.

The target of assay [10] is T1, Proteasome Macropain subunit MB1. The assay can be described thus: Inhibition of 20S proteasome beta 5c (unknown origin) after 1 hr by fluorescence based assay.
Assay [11] concerns the target T4, Proteasome subunit beta type-9. The assay can be described thus: Inhibition of 20S proteasome beta 1i (unknown origin).
Assay [12] in a line: Inhibition of 20S proteasome beta 2c (unknown origin).
The species entered for assay [13] is Homo sapiens. Put plainly: Selectivity index, ratio of IC50 for 20S proteasome beta 1c (unknown origin) to IC50 for 20S proteasome beta 1i (unknown origin).
The species named for assay [14] is Homo sapiens. Put plainly: Selectivity index, ratio of IC50 for 20S proteasome beta 2c (unknown origin) to IC50 for 20S proteasome beta 2i (unknown origin).

For the molecule `Cc1c(CCC(=O)O)c(=O)oc2cc3occ(-c4ccccc4)c3cc12`, the Ratio IC50 in assay [1] stood at 108. For the same molecule, the IC50 in assay [2] was found to be 172000 nM; in assay [3] it was 1600 nM.
In the case of `C[C@@H](CC(=O)NCc1cccc2ccccc12)NC(=O)[C@H](CC(=O)NC(C)(C)C)NC(=O)CCc1ccccc1`, the IC50 was found to be 76000 nM in [4] and 57 nM in assay [6]. Also, the Ratio IC50 in assay [5] was found to be 1330.
The matching figures for `Cc1ccc(S(=O)(=O)N[C@@H](CC(=O)NC(C)(C)C)C(=O)N[C@@H](C)CC(=O)NCc2cccc3ccccc23)cc1`: 74900 nM, 5.5 nM and 13600.
As for `CC(C)C[C@H](NC(=O)[C@@H](NC(=O)c1cccc(-c2ccccc2)n1)[C@@H](C)O)B(O)O` [DELANZOMIB], the IC50 in [7] lay in the range of 10 to 30 nM; in assay [8], 3 to 20 nM; in assay [9] it was 1 to 3 nM; in [10], 3 to 20 nM.
As to `Cc1ccc(S(=O)(=O)N[C@@H](CC(=O)NC(C)(C)C)C(=O)NCCNC(=O)c2cc(-c3ccccc3F)ccc2F)cc1`, the Ratio IC50 in [5] was 28.
For the molecule `CC(C)C[C@H](NC(=O)CN1CCCCCC1)C(=O)N[C@@H](Cc1ccccc1)C(=O)N[C@@H](Cc1ccccc1)C(=O)[C@@]1(C)CO1`, the 50% inhibitory concentration (IC50) in assay [11] stood at 425 nM; in assay [12], 81 nM. Besides, the Ratio IC50 in assay [5] is 0.8; in [13], above 602.
`Cc1c(C2CCCC2)c(=O)oc2cc3occ(-c4ccccc4)c3cc12`: the Ratio IC50 in assay [1] is 83. Moreover, the values for the IC50 in assay [2] and in assay [3] were 1070 nM and 13 nM, respectively.
In the case of `Cc1ccc(S(=O)(=O)N[C@H](CC(=O)N[C@@H](C)C(=O)NCc2cccc3ccccc23)CC(=O)NC(C)(C)C)cc1`, the 50% inhibitory concentration (IC50) in [4] amounted to 78200 nM; in [6] it was 14 nM. Besides, the Ratio IC50 in assay [5] was determined as 5600.
As for `COc1ccc(C[C@H](NC(=O)[C@@H](C)NC(=O)[C@H]2CC[C@H](O)CC2)C(=O)N[C@@H](CC2=CCCC2)C(=O)[C@@]2(C)CO2)cc1`, the Ratio IC50 in assay [5] was 79; in [13], above 14.
For `Cc1c(Cc2nsc(=O)o2)c(=O)oc2cc3occ(-c4ccccc4)c3cc12`, the Ratio IC50 in assay [1] was above 80. This molecule also returned an IC50 in [3] of 120 nM.
Regarding `CC(C)(C)NC(=O)C[C@H](NS(=O)(=O)C1CC1)C(=O)NCCNC(=O)c1cc(-c2ccccc2F)ccc1F`, in assay [5], the Ratio IC50 came to 64.
For the molecule `Cc1c(CCC(=O)ON2C(=O)CCC2=O)c(=O)oc2cc3occ(-c4ccccc4)c3cc12`, the Ratio IC50 in assay [1] is 24. The IC50 in [2] is 220 nM; in assay [3] it was 9 nM.
Take `COc1ccc([C@@H](O)[C@H](NC(=O)[C@H](C)NC(=O)CN2CCOCC2)C(=O)N[C@@H](CC2=CCCC2)C(=O)[C@@]2(C)CO2)cc1` [ZETOMIPZOMIB]: the IC50 in assay [8] was found to be 39 nM; in [10], 688 nM. Moreover, the results for the Ratio IC50 in [14], in assay [5] and in assay [13] were above 80.9, 17.6 and 0.97, respectively.

The values are drawn from ChEMBL document CHEMBL4402529, “Immunoproteasome-selective inhibitors: An overview of recent developments as potential drugs for hematologic malignancies and autoimmune diseases” (Eur J Med Chem, 2019).
